PMC7782793, “Hydroxamic acid-modified peptide microarrays for profiling isozyme-selective interactions and inhibition of histone deacetylases” (Nature Communications, 2021)
Values joined by “and” are separate entries in the source; they are usually repeats but may differ in a detail not shown here. Equal entries are not always repeated. Marks after values point to notes of the source that are not given here. Non-standard residues stand in square brackets, D forms with d. Residues, ends and D or L forms follow the SMILES beside them. *: point of attachment. Asu = N[C@@H](CCCCCC(=O)O)C(=O)O; NHOH = ON*

Key:
HDAC6 = target: T1, HDAC6 (Homo sapiens, UniProt Q9UBN7); test: HDAC inhibition assay (fluorogenic, Ac-Leu-Gly-Lys(Ac)-AMC); type: biochemical; settings: HDAC6, replicates
T1 construct: HDAC6 (full length, BPS Bioscience, cat. #: 50056); purchased BPS Bioscience 50056
T1 sequence (Q9UBN7 1-1215): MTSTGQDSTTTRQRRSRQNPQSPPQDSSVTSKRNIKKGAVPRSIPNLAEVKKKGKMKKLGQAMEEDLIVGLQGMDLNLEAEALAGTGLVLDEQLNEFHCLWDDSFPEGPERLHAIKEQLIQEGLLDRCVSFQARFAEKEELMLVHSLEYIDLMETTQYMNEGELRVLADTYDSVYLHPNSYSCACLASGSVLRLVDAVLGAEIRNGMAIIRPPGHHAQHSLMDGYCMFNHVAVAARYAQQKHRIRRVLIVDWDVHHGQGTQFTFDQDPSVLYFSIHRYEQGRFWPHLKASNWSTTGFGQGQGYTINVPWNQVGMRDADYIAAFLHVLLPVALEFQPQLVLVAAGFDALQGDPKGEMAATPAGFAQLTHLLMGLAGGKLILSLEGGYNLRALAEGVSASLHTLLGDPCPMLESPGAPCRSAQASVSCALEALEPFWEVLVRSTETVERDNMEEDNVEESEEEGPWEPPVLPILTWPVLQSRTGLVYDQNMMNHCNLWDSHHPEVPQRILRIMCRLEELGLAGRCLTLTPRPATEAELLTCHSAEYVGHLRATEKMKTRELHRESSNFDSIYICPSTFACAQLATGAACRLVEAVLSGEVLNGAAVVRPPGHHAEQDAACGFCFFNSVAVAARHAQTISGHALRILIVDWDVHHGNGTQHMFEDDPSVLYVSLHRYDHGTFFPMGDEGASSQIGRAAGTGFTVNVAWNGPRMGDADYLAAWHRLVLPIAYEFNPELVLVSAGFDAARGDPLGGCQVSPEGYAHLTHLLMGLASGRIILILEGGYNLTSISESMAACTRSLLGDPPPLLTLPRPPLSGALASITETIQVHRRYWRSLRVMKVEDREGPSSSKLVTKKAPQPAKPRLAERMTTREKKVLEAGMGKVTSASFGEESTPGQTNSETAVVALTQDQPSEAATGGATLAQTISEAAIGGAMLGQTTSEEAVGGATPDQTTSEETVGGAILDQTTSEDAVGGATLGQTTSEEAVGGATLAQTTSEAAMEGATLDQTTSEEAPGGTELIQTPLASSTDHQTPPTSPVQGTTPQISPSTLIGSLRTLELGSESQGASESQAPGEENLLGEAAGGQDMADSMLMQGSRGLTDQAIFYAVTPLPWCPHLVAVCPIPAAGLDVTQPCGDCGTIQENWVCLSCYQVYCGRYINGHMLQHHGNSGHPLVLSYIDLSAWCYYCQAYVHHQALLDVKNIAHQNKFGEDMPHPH

HDAC4 = target: T2, HDAC4 (Homo sapiens, UniProt P56524); test: HDAC inhibition assay (fluorogenic, Ac-Leu-Gly-Lys(Tfa)-AMC); type: biochemical; settings: 2 internal replicates; for remaining activity at 5 µM / remaining activity at 50 µM: read-out: residual enzymatic activity relative to control wells
T2 construct: purchased BPS Bioscience 50004
T2 sequence (P56524 627-1084): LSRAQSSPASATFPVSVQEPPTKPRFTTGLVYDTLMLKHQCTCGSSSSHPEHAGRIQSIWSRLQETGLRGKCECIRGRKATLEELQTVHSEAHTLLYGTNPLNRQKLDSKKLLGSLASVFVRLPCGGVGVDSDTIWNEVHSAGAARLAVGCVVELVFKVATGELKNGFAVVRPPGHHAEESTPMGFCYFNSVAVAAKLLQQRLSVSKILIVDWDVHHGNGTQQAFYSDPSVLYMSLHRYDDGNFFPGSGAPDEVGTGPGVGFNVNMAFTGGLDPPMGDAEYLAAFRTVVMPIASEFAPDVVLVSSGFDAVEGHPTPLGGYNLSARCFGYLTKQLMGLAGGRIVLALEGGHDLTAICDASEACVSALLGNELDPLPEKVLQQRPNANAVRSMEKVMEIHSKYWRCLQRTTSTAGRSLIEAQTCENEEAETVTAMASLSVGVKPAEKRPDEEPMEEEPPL

Row | Compound | residual enzymatic activity relative to control wells (HDAC6; log[inhibitor(M)] -4.30103) | residual enzymatic activity relative to control wells (HDAC6; log[inhibitor(M)] -5) | residual enzymatic activity relative to control wells (HDAC6; log[inhibitor(M)] -5.69897) | residual enzymatic activity relative to control wells (HDAC6; log[inhibitor(M)] -6.39794) | residual enzymatic activity relative to control wells (HDAC6; log[inhibitor(M)] -7.09691) | residual enzymatic activity relative to control wells (HDAC6; log[inhibitor(M)] -7.79588) | residual enzymatic activity relative to control wells (HDAC6; log[inhibitor(M)] -8.49485) | residual enzymatic activity relative to control wells (HDAC6; log[inhibitor(M)] -9.19382) | residual enzymatic activity relative to control wells (HDAC6; log[inhibitor(M)] -9.89279) | residual enzymatic activity relative to control wells (HDAC6; log[inhibitor(M)] -10.585) | residual enzymatic activity relative to control wells (HDAC4; inhibitor 5 µM) | remaining activity at 5 µM (HDAC4; inhibitor 5 µM) | residual enzymatic activity relative to control wells (HDAC4; inhibitor 50 µM) | remaining activity at 50 µM (HDAC4; inhibitor 50 µM)
1 | CC(=O)NCC(=O)NCC(=O)N[C@@H](CCCCCC(=O)NO)C(=O)N[C@@H](C)C(=O)N[C@@H](CCCNC(=N)N)C(=O)N[C@@H](C)C(=O)N[C@@H](CCCCN)C(=O)N[C@@H](C)C(=O)N[C@@H](CCCCN)C(=O)N[C@H](C(=O)N[C@@H](CCCNC(=N)N)C(=O)N[C@@H](CO)C(=O)N[C@@H](CO)C(=O)N[C@@H](CCCNC(=N)N)C(=O)N[C@@H](C)C(=O)NCC(=O)N[C@@H](Cc1c[nH]c2ccccc12)C(N)=O)[C@@H](C)O [9a] (Ac-GG[Asu](NHOH)ARAKAKTRSSRAGW-NH2) | 0.99 and 1.47 | 0.54 and 1.15 | 2.15 and 1.92 | 7.05 and 5.56 | 24.41 and 17.7 | 54.41 and 42.53 | 80.22 and 64.16 | 93.97 and 80.87 | 97.61 and 89.51 | 98,6* and 92,44* | 94.96 | 97.8% | 54.4 | 57.5%
2 | CC(=O)N[C@@H](C)C(=O)N1CCC[C@H]1C(=O)N[C@@H](C)C(=O)N1CCC[C@H]1C(=O)N[C@@H](CCCCN)C(=O)N[C@@H](CCCCCC(=O)NO)C(=O)NCC(=O)N[C@@H](CO)C(=O)N[C@@H](CCCCN)C(=O)N[C@@H](CCCCN)C(=O)N[C@@H](C)C(=O)N[C@H](C(=O)N[C@H](C(=O)N[C@@H](CCCCN)C(=O)N[C@@H](C)C(=O)N[C@@H](CCC(N)=O)C(=O)N[C@@H](Cc1c[nH]c2ccccc12)C(N)=O)[C@@H](C)O)C(C)C [10a] (Ac-APAPK[Asu](NHOH)GSKKAVTKAQW-NH2) | 1.4 and 0.93 | 3.09 and 2.23 | 13.76 and 8.98 | 36.89 and 30.05 | 68.83 and 58.89 | 90.1 and 83.16 | 98.1 and 88.82 | 100.25 and 95.78 | 102.47 and 98.2 | 99,94* and 98,05* | 95.93 | 100% | 77.53 | 80.4%
3 | CC(=O)N1CCC[C@H]1C(=O)N[C@@H](CCCNC(=N)N)C(=O)N[C@@H](CCCCN)C(=O)N[C@@H](CCC(N)=O)C(=O)N[C@@H](CC(C)C)C(=O)N[C@@H](C)C(=O)N[C@H](C(=O)N[C@@H](CCCCN)C(=O)N[C@@H](C)C(=O)N[C@@H](C)C(=O)N[C@@H](CCCNC(=N)N)C(=O)N[C@@H](CCCCCC(=O)NO)C(=O)N[C@@H](CO)C(=O)N[C@@H](C)C(=O)N1CCC[C@H]1C(=O)N[C@@H](C)C(=O)N[C@@H](Cc1c[nH]c2ccccc12)C(N)=O)[C@@H](C)O [14a] (Ac-PRKQLATKAAR[Asu](NHOH)SAPAW-NH2) | 0.91 and 1.08 | 1.61 and 1.34 | 2.69 and 2.19 | 9.28 and 7.48 | 29.33 and 24.37 | 61.34 and 57.66 | 91.27 and 83.89 | 101.6 and 95.57 | 101.56 and 98.95 | 102,36* and 98,9* | 82.79 | 91.8% | 33.99 | 41.7%
4 | CC(=O)N[C@@H](CC(C)C)C(=O)NCC(=O)N[C@@H](CCCCN)C(=O)NCC(=O)NCC(=O)N[C@@H](C)C(=O)N[C@@H](CCCCCC(=O)NO)C(=O)N[C@@H](CCCNC(=N)N)C(=O)N[C@@H](Cc1c[nH]cn1)C(=O)N[C@@H](CCCNC(=N)N)C(=O)N[C@@H](CCCCN)C(=O)N[C@H](C(=O)N[C@@H](CC(C)C)C(=O)N[C@@H](CCCNC(=N)N)C(=O)N[C@@H](CC(=O)O)C(=O)N[C@@H](CC(N)=O)C(=O)N[C@@H](Cc1c[nH]c2ccccc12)C(N)=O)C(C)C [16a] (Ac-LGKGGA[Asu](NHOH)RHRKVLRDNW-NH2) | 4.09 and 0.65 | 6.22 and 1.17 | 11.26 and 3.12 | 21.64 and 10.97 | 46.18 and 32.55 | 74.92 and 62.21 | 91.41 and 82.42 | 100.82 and 93.56 | 98.48 and 94.75 | 101,7* and 98,09* | 96.58 | 93.6% | 68.39 | 67.1%
